Data: paper PMC5458211, “Mitochondrial VDAC1-based peptides: Attacking oncogenic properties in glioblastoma” (Oncotarget, 2017)
Non-standard residues stand in square brackets, D forms with d. Residues, ends and D or L forms follow the SMILES beside them.

Key:
[1] = tested on: U-87MG sub-cutaneous xenograft tumors; assay: Sub-cutaneous U-87MG xenograft, tumor growth; type: in vivo, human U-87MG in nude mice; conditions: s.c. U-87MG xenograft, 20 μM intra-tumoral every two days, end point, n=5
Method: Figure 3 VDAC1-based peptides inhibit tumor growth, cell proliferation, and invasion in a glioblastoma xenograft mice model A. Graphical representation of the xenograft experiment protocol used. U-87MG cells (3×10^6/mouse) were inoculated into male nude mice as described in Materials and Methods available online in Supplemental information. B, C. […] The calculated average tumor volumes are presented as means ± SE (n=5) (* p≤0.05, ** p≤0.01). C. The volume of peptide-treated tumors is presented as % of control for each indicated time. Results = mean ± SE (n=5) (* p≤0.05, ** […]). […] E. Quantitative analysis of Ki-67 positive cells. Results = mean ± SE (n=5) (*** p<0.001). […]
U-87MG glioblastoma cells (3 x10^6) were inoculated s.c. into the hind leg flanks of athymic eight-week old male nude mice (Envigo). Thirteen days post-inoculation, tumor volume was measured (100-130 mm^3) and mice were randomized into three groups (5 animals/group), treated with PBS containing 0.26% DMSO or peptide in PBS, 0.26% DMSO/20 μM every second day. […]
(Calbiochem, UK). […] Thirteen days post-inoculation, using various primary antibodies (sources and dilutions tumor volume was measured and calculated (100-130 as detailed in supplementary Table 2), followed by mm3) and mice were randomized into three groups (5 the appropriate HRP-conjugated secondary antibodies mice/group). […]

U-87MG cells = assay: Cell death by propidium iodide (PI) staining and flow cytometry, U-87MG; type: cell-based, human; conditions: 6 h at 37°C, serum-free medium, means ± SD (n=3), Fig 1H, read-out: IC50 for inducing cell death
From the text: Figure 1 VDAC1-based peptides induce dramatic cell death of several brain tumor-derived cell lines but to lesser extent in primary brain cells A. IHC staining of VDAC1 of human normal brain (n=13) or glioblastoma (n=41) in tissue array slides (Biomax), as described in Materials and methods available online in Supplemental information. Percentages of sections stained at the intensity indicated are shown. […] The VDAC1-derived sequences Δ(1-14)N-terminus and LP4 are in green and pink, respectively. The cell-penetrating peptides Antp and Tf are in orange and blue, respectively. The loop shape of LP4 stabilized by a tryptophan zipper is in purple. The amino acids of Δ(1-14)N-terminus, LP4 and Antp are in the D configuration. […] Cells were harvested, washed twice with PBS and cell death was analyzed by propidium iodide (PI) staining and flow cytometry. […] Cells were harvested, washed twice with PBS and cell death was analyzed by PI staining and flow cytometry. […]
Sections were also hematoxylin-stained and visualized by microscopy. […] Quantitative analysis of immunoblots is shown (n=2-4). […] E. Quantitative analysis of immunoblots. […]
[…] The cells were then trypsinized, centrifuged (1500xg, 5 min), washed with PBS and analyzed for cell death using propidium iodide (PI) staining and flow cytometer (Beckton-Dickinson, San Jose, CA) and BD CellQuest Pro software. […]

Question: Which “lower average tumor volume relative to PBS/DMSO” value [1] does the source give for `CC[C@@H](C)[C@@H](NC(=O)[C@@H](CCCCN)NC(=O)[C@H](NC(=O)[C@@H](CCC(N)=O)NC(=O)[C@@H](CCCNC(=N)N)NC(=O)[C@@H](CC(C)C)NC(=O)CNC(=O)[C@@H](Cc1ccccc1)NC(=O)CNC(=O)[C@@H](Cc1ccc(O)cc1)NC(=O)CNC(=O)[C@@H](CCCCN)NC(=O)[C@H](NC(=O)[C@@H](Cc1ccccc1)NC(=O)[C@H](NC(=O)[C@@H](CC(=O)O)NC(=O)[C@H](N)CCCNC(=N)N)C(C)C)[C@H](C)O)[C@H](C)CC)C(=O)N[C@H](Cc1c[nH]c2ccccc12)C(=O)N[C@H](Cc1ccccc1)C(=O)N[C@H](CCC(N)=O)C(=O)N[C@H](CC(N)=O)C(=O)N[C@H](CCCNC(=N)N)C(=O)N[C@H](CCCNC(=N)N)C(=O)N[C@H](CCSC)C(=O)N[C@H](CCCCN)C(=O)N[C@H](Cc1c[nH]c2ccccc12)C(=O)N[C@H](CCCCN)C(=O)N[C@H](CCCCN)C(=O)O` [D-ΔN-Ter-Antp] (H-[dR][dD][dV][dF][dT][dK]G[dY]G[dF]G[dL][dR][dQ][dI][dK][dI][dW][dF][dQ][dN][dR][dR][dM][dK][dW][dK][dK]-OH; N-terminus and C-terminus assumed) here?
Answer: about 75%

Question: And the IC50 (U-87MG cells)?
Answer: 3.2 ± 0.6 µM
